Like-named read-outs stand apart in the source and are kept apart here.
Legend:
off-target kinases [1] = molecular target: off-target kinases (Homo sapiens, UniProt Q9HAZ1); assay: SelectScreen Kinase Profiling, single point inhibition and IC50 for off-target kinases; format: biochemical; conditions: CLK4, LanthaScreen Binding
off-target kinases [2] = molecular target: T1, off-target kinases (Homo sapiens, UniProt Q9UL54); assay: as above; format: biochemical; conditions: TAOK2 (TAO1), ZLYTE, ATP Km app
T1 sequence (Q9UL54 1-1235): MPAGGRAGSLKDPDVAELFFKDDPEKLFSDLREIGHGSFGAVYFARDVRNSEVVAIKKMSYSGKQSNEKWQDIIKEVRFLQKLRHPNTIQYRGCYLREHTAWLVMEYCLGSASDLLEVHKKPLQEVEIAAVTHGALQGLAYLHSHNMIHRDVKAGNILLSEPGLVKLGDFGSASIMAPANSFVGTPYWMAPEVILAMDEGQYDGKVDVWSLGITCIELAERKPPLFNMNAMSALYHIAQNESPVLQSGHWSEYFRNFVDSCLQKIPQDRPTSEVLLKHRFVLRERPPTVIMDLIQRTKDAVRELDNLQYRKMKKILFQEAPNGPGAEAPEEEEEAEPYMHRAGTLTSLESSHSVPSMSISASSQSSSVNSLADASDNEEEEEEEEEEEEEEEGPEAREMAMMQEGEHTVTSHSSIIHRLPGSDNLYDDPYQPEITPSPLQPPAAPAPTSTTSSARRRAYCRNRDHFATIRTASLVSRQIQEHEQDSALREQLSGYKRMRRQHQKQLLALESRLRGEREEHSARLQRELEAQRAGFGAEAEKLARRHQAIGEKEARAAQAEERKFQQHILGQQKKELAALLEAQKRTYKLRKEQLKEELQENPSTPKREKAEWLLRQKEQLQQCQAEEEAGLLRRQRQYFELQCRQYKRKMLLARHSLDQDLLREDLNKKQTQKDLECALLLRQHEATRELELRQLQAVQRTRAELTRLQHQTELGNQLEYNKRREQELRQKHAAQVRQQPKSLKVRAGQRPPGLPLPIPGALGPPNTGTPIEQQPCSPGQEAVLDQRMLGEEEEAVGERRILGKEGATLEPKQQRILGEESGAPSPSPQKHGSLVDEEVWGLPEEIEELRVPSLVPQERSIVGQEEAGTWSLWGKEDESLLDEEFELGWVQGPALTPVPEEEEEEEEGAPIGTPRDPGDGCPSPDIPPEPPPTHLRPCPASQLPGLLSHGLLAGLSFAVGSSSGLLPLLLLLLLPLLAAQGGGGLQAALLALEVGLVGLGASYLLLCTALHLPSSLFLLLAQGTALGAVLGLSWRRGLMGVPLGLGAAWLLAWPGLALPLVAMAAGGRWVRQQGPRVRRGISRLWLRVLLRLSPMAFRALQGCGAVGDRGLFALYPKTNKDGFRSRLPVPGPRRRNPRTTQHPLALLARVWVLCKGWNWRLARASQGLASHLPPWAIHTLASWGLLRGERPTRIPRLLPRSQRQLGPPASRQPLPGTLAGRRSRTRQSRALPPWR

off-target kinases (Homo sapiens, UniProt Q9HAZ1), sequence (Q9HAZ1 whole entry): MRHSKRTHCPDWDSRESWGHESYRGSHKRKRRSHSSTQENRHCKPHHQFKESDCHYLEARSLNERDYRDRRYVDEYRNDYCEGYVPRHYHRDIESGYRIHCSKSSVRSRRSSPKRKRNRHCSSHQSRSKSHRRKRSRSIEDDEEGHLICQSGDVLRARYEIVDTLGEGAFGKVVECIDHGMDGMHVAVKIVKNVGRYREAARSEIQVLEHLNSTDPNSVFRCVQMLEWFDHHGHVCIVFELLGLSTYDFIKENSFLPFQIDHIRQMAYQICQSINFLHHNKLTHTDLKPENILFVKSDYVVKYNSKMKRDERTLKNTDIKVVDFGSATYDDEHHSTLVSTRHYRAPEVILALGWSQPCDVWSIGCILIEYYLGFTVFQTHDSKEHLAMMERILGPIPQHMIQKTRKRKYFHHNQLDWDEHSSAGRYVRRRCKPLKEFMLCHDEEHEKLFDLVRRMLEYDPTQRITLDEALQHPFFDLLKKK

SMILES: N#Cc1cc(-c2ncnc(Nc3ccc(N4CCN(C5COC5)CC4)cc3)n2)ccc1OC1CCOCC1 [Compound 1, 5-(4-((4-(4-(oxetan-3-yl)piperazin-1-yl)phenyl)amino)-1,3,5-triazin-2-yl)-2-((tetrahydro-2H-pyran-4-yl)oxy)benzonitrile]
- inhibition (off-target kinases [1]; read-out: % Inhibition 1): 87%
- inhibition (off-target kinases [1]; read-out: % Inhibition 2): 89%
- inhibition (off-target kinases [1]; read-out: % Inhibition Avg): 88%
- inhibition (off-target kinases [2]; read-out: % Inhibition 1): 3%
- inhibition (off-target kinases [2]; read-out: % Inhibition 2): 6%
- inhibition (off-target kinases [2]; read-out: % Inhibition Avg): 5%

— patent publication US11572590B2, “Methods for evaluating tumor cell spheroids using 3D microfluidic cell culture device” (Dana-Farber Cancer Institute, Inc., priority 2017, dated 2023)
